According to patent US12594249B2 (ThermoLife International, LLC, priority 2023, dated 2026):
Converted amounts (≈) assume the structure as drawn.

Tests used:
[1] = solubility of 2 g in 200 ml saturated citric acid solution (pH=3), filtration, visual; details: for appearance of liquid that passed through the filter: 2 grams in 200 ml saturated citric acid solution
Source text: The resulting acidic solution was then passed out by a filter. […]

[2] = system: chronic knee and shoulder pain; assay: case report: oral ingestion by a person with chronic knee and shoulder pain; type: in vivo, human; details: 1 gram twice per day
[3] = system: exercise capacity and recovery; assay: case report: exercise performance and recovery of a subject who regularly trains (treadmill, arm curls test, soreness); type: in vivo, human; details: for arm curls test: maximum number of bicep curl repetitions in 30 seconds: 40 lb dumbbell; for arm curls test: maximum number of bicep curl repetitions in 30 seconds / time to exhaustion on the treadmill: 1 gram doses the day/night before and 1 hour before training; for time to recovery (measured by muscle soreness and discomfort): after training; for time to exhaustion on the treadmill: Ifit treadmill, 0 elevation, 5 miles per hour
[4] = dissolution of 1 g powder in 100 ml water, visual, with and without stirring, centrifugation and filtration; details: for appearance of filtrate / solid left on the filter paper: centrifuged at 1000 rpm for 10 seconds, filtered; for visible dissolution in water without stirring: not stirred, one minute (phenoxide), 10 minutes (curcumin); for solubility in water (visual): FIG. 6 (0.5 g in 50 ml), FIGS. 7 and 8 (1 g in 100 ml)
[5] = standard conditions; cited from earlier work
[6] = Lu et al. 2020, cited from earlier work
[7] = in vivo; cited from earlier work

solubility in water with stirring ([4]; 1 g in 100 ml water, stirring 1200 rpm) | SMILES | appearance of liquid that passed through the filter [1] | solubility at acidic pH (conclusion) ([1]; saturated citric acid solution) | onset of improvement in symptoms [2] | pain reduction during the next 30 days ([2]; 30 days) | arm curls test: maximum number of bicep curl repetitions in 30 seconds [3] | effect on exercise capacity and recovery (summary) ([3]; person) | time to recovery (measured by muscle soreness and discomfort) ([3]; person) | soreness the day after training ([3]; person, day after training) | time to exhaustion on the treadmill ([3]; person) | appearance of filtrate ([4]; 1 g in 100 ml water) | solid left on the filter paper ([4]; 1 g in 100 ml water) | visible dissolution in water without stirring ([4]; 1 g in 100 ml water) | time for all 1 gram to be dissolved in 100 ml of water ([4]; stirring at 1200 rpm with a magnetic stirrer) | solubility in water (visual) [4] | solubility in ethanol [5] | solubility in Phosphate buffer ([6]; Phosphate buffer) | solubility in water ([6]; water) | half-life [7]
– | COc1cc(/C=C/C(=O)/C=C(O)/C=C/c2ccc(O)c(OC)c2)ccc1O.N.N [ammonium phenoxide of curcumin] | characteristic orange color of curcumin | increased solubility | on the second day | continued showing improvement | 14 repetitions | increased their exercise capacity and reduced the needed time for recovery | 1 days | noticeably lower | 15.5 min | the color of curcumin | no solid matter was left on the filter paper | visible at one minute | less than 10 seconds | a lot more water-soluble | – | – | – | –
no solubility even with stirring | COc1cc(/C=C/C(=O)CC(=O)/C=C/c2ccc(O)c(OC)c2)ccc1O [curcumin] | totally clear | – | – | – | 11 repetitions | no effect | 2 days | – | 13 min | clear and lacked color | all of the curcumin powder was left on the filter paper | no visible sign of curcumin dissolving in water | – | low solubility | 1000 µg/mL (≈ 2710 µM) | 0.310 µg/mL (≈ 0.842 µM) | 1.622 µg/mL (≈ 4.4 µM) | ~7 h
